Earlier results in US20100022462A1, “APPETITE S[…] COLON CLEANSING COMPOSITION” (priority 2008, published 2010).

Test system: lipase
Settings: background statement on the marketed drug; no test conditions given

Question: With CCCCCCCCCCC[C@@H](C[C@@H]1OC(=O)[C@H]1CCCCCC)OC(=O)[C@H](CC(C)C)NC=O [XENICAL, orlistat] as the compound, how does the “decreasing dietary fat absorption” value read?
Answer: 30%
